# Assay results taken from PubChem BioAssay (NCI).
#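 Step 1: Grow cells in 96-well plates. Step 2: Expose to compound for 48 hours at 5 concentrations. Step 3: Interpolate endpoints linearly; if unreached, use highest concentration. GI50 marks 50% less growth. Definition used: TGI = concentration required for complete inhibition of growth.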
# Key:
# Assay in all cases: DTP human tumour cell line panel, 48 h
# [1] = system: PC-3 prostate
# [2] = system: T-47D breast
# [3] = system: DU-145 prostate
# [4] = system: SF-268 CNS
# [5] = system: HOP-92 NSCLC
# [6] = system: RPMI-8226 leukemia
# [7] = system: SNB-19 CNS
# [8] = system: NCI-H460 lung
# [9] = system: MALME-3M melanoma
# [10] = system: NCI-H522 lung
# [11] = system: IGROV1 ovarian
# [12] = system: UACC-62 melanoma
# [13] = system: MCF7 breast
# [14] = system: CCRF-CEM leukemia
# [15] = system: SNB-75 CNS
# [16] = system: OVCAR-5 ovarian
# [17] = system: UO-31 renal
# [18] = system: OVCAR-3 ovarian
# [19] = system: KM12 colon
# [20] = system: OVCAR-4 ovarian
# [21] = system: A549 NSCLC
# [22] = system: HCT-15 colon
# [23] = system: HCT-116 colon
# [24] = system: CAKI-1 renal
# [25] = system: SK-MEL-5 melanoma
# [26] = system: SK-MEL-2 melanoma
# [27] = system: HOP-62 NSCLC
# [28] = system: HS 578T breast
# [29] = system: MDA-MB-231 breast
# [30] = system: MDA-MB-435
# [31] = system: UACC-257 melanoma
# [32] = system: EKVX NSCLC
# [33] = system: LOX IMVI melanoma
# [34] = system: SN12C renal
# [35] = system: SF-539 CNS
# [36] = system: A498 renal
# [37] = system: SF-295 CNS
# [38] = system: SK-OV-3 ovarian
# [39] = system: OVCAR-8 ovarian
# [40] = system: TK-10 renal
# [41] = system: HCC-2998 colon
# [42] = system: BT-549 breast
# [43] = system: COLO 205 colon
# [44] = system: NCI/ADR-RES ovarian
# [45] = system: 786-0 renal
# [46] = system: U251 CNS
# [47] = system: M14 melanoma
# [48] = system: SK-MEL-28 melanoma
# [49] = system: NCI-H226 lung
# [50] = system: SW-620 colon
# [51] = system: ACHN renal
# [52] = system: RXF 393 renal
smiles,measurement,setting,value
CCN1CCN(S(=O)(=O)c2oc(-c3ccc(Cl)cc3)nc2C#N)CC1,GI50,[1],13.3 µM
same,TGI,[1],26.9 µM
same,GI50,[2],2.24 µM
same,TGI,[2],6.24 µM
same,GI50,[3],7.58 µM
same,TGI,[3],21 µM
same,GI50,[4],11.8 µM
same,TGI,[4],41.3 µM
same,GI50,[5],2.75 µM
same,TGI,[5],10.1 µM
same,GI50,[6],3.26 µM
same,TGI,[6],13.5 µM
same,GI50,[7],15.7 µM
same,TGI,[7],29.3 µM
same,GI50,[8],15.8 µM
same,TGI,[8],39.9 µM
same,GI50,[9],2.07 µM
same,TGI,[9],4.12 µM
same,GI50,[10],1.48 µM
same,TGI,[10],3.06 µM
same,GI50,[11],15.8 µM
same,TGI,[11],37 µM
same,GI50,[12],11.2 µM
same,TGI,[12],24.2 µM
same,GI50,[13],2.3 µM
same,TGI,[13],10.4 µM
same,GI50,[14],1 µM
same,TGI,[14],8.75 µM
same,GI50,[15],14.1 µM
same,TGI,[15],27.4 µM
same,GI50,[16],14.5 µM
same,TGI,[16],29.4 µM
same,GI50,[17],4.1 µM
same,TGI,[17],15.9 µM
same,GI50,[18],1.95 µM
same,TGI,[18],3.74 µM
same,GI50,[19],15.7 µM
same,TGI,[19],42.8 µM
same,GI50,[20],4.04 µM
same,TGI,[20],23.4 µM
same,GI50,[21],17.8 µM
same,TGI,[21],35.1 µM
same,GI50,[22],1.76 µM
same,TGI,[22],3.92 µM
same,GI50,[23],2.12 µM
same,TGI,[23],6.98 µM
same,GI50,[24],1.38 µM
same,TGI,[24],2.74 µM
same,GI50,[25],15.9 µM
same,TGI,[25],29.6 µM
same,GI50,[26],14.5 µM
same,TGI,[26],28.3 µM
same,GI50,[27],17.2 µM
same,TGI,[27],33.6 µM
same,GI50,[28],20.9 µM
same,TGI,[28],69.4 µM
same,GI50,[29],14.5 µM
same,TGI,[29],29.1 µM
same,GI50,[30],4.47 µM
same,TGI,[30],16.3 µM
same,GI50,[31],10.8 µM
same,TGI,[31],23.1 µM
same,GI50,[32],16 µM
same,TGI,[32],29.8 µM
same,GI50,[33],1.13 µM
same,TGI,[33],2.54 µM
same,GI50,[34],11.4 µM
same,TGI,[34],24.5 µM
same,GI50,[35],6.47 µM
same,TGI,[35],19.8 µM
same,GI50,[36],29.4 µM
same,TGI,[36],82.4 µM
same,GI50,[37],17.3 µM
same,TGI,[37],31.8 µM
same,GI50,[38],18.7 µM
same,TGI,[38],36.9 µM
same,GI50,[39],12.9 µM
same,TGI,[39],27.2 µM
same,GI50,[40],12.8 µM
same,TGI,[40],25.8 µM
same,GI50,[41],15.8 µM
same,TGI,[41],31.4 µM
same,GI50,[42],4.87 µM
same,TGI,[42],18.5 µM
same,GI50,[43],2.07 µM
same,TGI,[43],3.76 µM
same,GI50,[44],18.7 µM
same,TGI,[44],62.7 µM
same,GI50,[45],2.78 µM
same,TGI,[45],8.19 µM
same,GI50,[46],14.9 µM
same,TGI,[46],30.9 µM
same,GI50,[47],3.5 µM
same,TGI,[47],15.7 µM
same,GI50,[48],3.6 µM
same,TGI,[48],12.3 µM
same,GI50,[49],2.46 µM
same,TGI,[49],7.01 µM
same,GI50,[50],1.69 µM
same,TGI,[50],4.17 µM
same,GI50,[51],1.91 µM
same,TGI,[51],3.42 µM
same,GI50,[52],1.89 µM
same,TGI,[52],3.5 µM
